Source: BindingDB's records for doi:10.1016/j.bmcl.2013.11.027 (Merck, 2013)

Target: Calcitonin gene-related peptide type 1 receptor/Receptor activity-modifying protein 1 (Homo sapiens, UniProt Q16602+O60894)
Test: Displacement of [125I]-hCGRP from human CALCRL/RAMP1 expressed in HEK293 cell membranes

Calcitonin gene-related peptide type 1 receptor/Receptor activity-modifying protein 1, sequence (Q16602 whole entry): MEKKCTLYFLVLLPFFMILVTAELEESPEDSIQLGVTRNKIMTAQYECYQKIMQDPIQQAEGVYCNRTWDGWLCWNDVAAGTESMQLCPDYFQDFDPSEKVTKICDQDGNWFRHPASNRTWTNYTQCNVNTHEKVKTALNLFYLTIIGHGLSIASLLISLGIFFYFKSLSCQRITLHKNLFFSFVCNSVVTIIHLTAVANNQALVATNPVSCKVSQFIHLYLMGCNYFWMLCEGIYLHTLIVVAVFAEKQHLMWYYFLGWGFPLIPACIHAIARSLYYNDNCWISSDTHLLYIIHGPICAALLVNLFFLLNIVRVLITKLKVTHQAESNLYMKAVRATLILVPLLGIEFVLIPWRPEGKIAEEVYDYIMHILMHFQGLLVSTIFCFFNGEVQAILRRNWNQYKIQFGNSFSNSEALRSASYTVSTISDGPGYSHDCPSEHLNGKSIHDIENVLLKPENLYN
Calcitonin gene-related peptide type 1 receptor/Receptor activity-modifying protein 1, sequence (O60894 whole entry): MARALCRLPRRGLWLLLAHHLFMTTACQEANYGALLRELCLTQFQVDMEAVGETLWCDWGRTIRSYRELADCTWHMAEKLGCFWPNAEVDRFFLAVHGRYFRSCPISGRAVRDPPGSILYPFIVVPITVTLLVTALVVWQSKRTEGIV

Ki [nM]	SMILES
0.05	C[C@H](c1cc(F)cc(F)c1)N(C/C=C/c1cnc2c(c1)C[C@@]1(C2)C(=O)Nc2ncccc21)C(=O)C1(C(F)(F)F)CC1 [US8552023, 11]
0.13	Cc1ccc([C@@H](C)N(C/C=C/c2cnc3c(c2)C[C@@]2(C3)C(=O)Nc3ncccc32)C(=O)C(C)(C)C)cc1F [US8552023, 13]
